In patent publication US20250144067A1, “PERSONALIZED STARVATION THERAPY FOR CANCER” (Faeth Therapeutics, Inc., priority 2021, published 2025):
Where a name gives a salt, the structure may show the parent alone.

Experiments:
H292 cells [1] = assay: Drug validation, four media conditions; assay type: cell-based, human; details: cholesterol-free medium+simvastatin compared to the other media conditions
Description: (§1) A series of experiments were designed to assess the effect of cholesterol depletion and statin treatment on the anti-cancer effect of drugs identified in the FDA drug screens. Cancer cells were grown in media containing cholesterol and cholesterol-free media in the presence or absence of simvastatin. The effect of the drug identified in the FDA drug screens on cancer cell growth was measured.
(§2) […]. Medium 1 was ‘complete medium’ containing all essential nutrients, including cholesterol. Medium 2 was cholesterol-free medium. Medium 3 was cholesterol-free medium supplemented with simvastatin 40 nM. Medium 4 was ‘complete medium’ containing all essential nutrients, including cholesterol, supplemented with simvastatin at the IC30 concentration for each cell line.
(§3) On Day 5, cell growth was measured by absorbance or fluorescence. For absorbance growth measurements, spent media was discarded, and wells were stained with a crystal violet staining solution, washed, and dried. 100 μL of 10% acetic acid was added to each well to release the crystal violet taken up by the cells. Plates were read using a Biotek Powerwave plate reader to determine the absorbance of the crystal violet released as an indicator of cell growth at a wavelength of 595 nm. For fluorescence growth measurements, 100 μL of a resazurin solution was added to each well and the plate incubated at 37° C. for four hours. Plates were read using a Biotek Powerwave plate reader to determine the fluorescence of reosurfin as an indicator of cell growth at a wavelength of 590 nm.
(§4) Growth curves showing absorbance of crystal violet at 595 nm or fluorescene of reosurfin at 590 nm were plotted from test wells against the logarithmic concentration of the validation drug. FIG. 9A-9C show growth of cancer cell lines in the four media conditions subjected to increasing doses of neticonazole. FIG. 10A-10D show growth of cancer cell lines in the four media conditions subjected to increasing doses of cepharanthine. FIG. 11A-11B show growth of cancer cell lines in the four media conditions subjected to increasing doses of alverine citrate. FIG. 12A-12B show growth of cancer cell lines in the four media conditions subjected to increasing doses of berbamine. FIG. 13A-13C show growth of cancer cell lines in the four media conditions subjected to increasing doses of pitolisant. FIG. 14A-14G show growth of cancer cell lines in the four media conditions subjected to increasing doses of avapritinib. FIG. 15A-15D show growth of cancer cell lines in the four media conditions subjected to increasing doses of toremifene. FIG. 16A-16C show growth of cancer cell lines in the four media conditions subjected to increasing doses of isavuconazole.

SW480 cells = assay: Drug validation, four media conditions; assay type: cell-based, human
Description: as §1, §2, §3, §4

SW480 colorectal tumour = assay: Anti-tumour activity with low cholesterol diet in SW480 tumour bearing mice; assay type: in vivo, M-NSG mice
Description: (§5) A series of in vivo experiments were designed to assess the effect of cholesterol depletion on cancer cell growth. The added role of statin treatment and additional therapeutic agents was studied by dosing mice and assessing tumor growth over a defined time period.
Immunodeficient M-NSG (NOD-Prkdc^scid Il2rgem1Smoc) mice were subcutaneously injected with human colorectal cancer SW480 cells and matrigel to initiate tumor development and randomly assigned into one of four experimental groups (n=6 per group): normal cholesterol diet “Normal Chol Diet” containing 0.2% dietary cholesterol and vehicle, low cholesterol diet “Low Chol Diet” containing less than 0.05% dietary cholesterol and vehicle, Low Chol Diet treated with atorvastatin at 15 mg/kg, or Low Chol Diet treated with toremifene at 2 mg/kg. Once the tumor volume reached ˜150 mm^3, experimental diets were commenced. Atorvastatin, vehicle, or toremifene treatment by oral gavage was initiated four days after the diet change and continued daily until the tumor volume exceeded 2000 mm^3 or the time end-point of three weeks after treatment initiation was reached. Throughout the course of the study, tumor volume was measured twice per week.

[2] = tested on: NCI-H292 mucoepidermoid lung cancer tumour; assay: Anti-tumour activity with low cholesterol diet in NCI-H292 tumour bearing mice; assay type: in vivo, BALB/c nude mice; details: Low Chol Diet + atorvastatin 30 mg/kg daily oral gavage vs Low Chol Diet + vehicle
Description: as §5
Immunodeficient BALB/c nude mice were subcutaneously injected with human mucoepidermoid lung cancer NCI-H292 cells to initiate tumor development and randomly assigned into one of three experimental groups (n=6 per group): normal cholesterol diet “Normal Chol Diet” containing 0.2% dietary cholesterol without atorvastatin; low cholesterol diet “Low Chol Diet” containing less than 0.05% dietary cholesterol without atorvastatin; or Low Chol Diet treated with atorvastatin at 30 mg/kg by oral gavage. Once the tumor volume reached ˜150 mm^3, experimental diets were commenced. Atorvastatin or vehicle treatment was initiated four days after the diet change and continued daily until the tumor volume exceeded 2000 mm^3 or the time end-point of three weeks after diet commencement was reached. Throughout the course of the study, tumor volume was measured twice per week.

[3] = tested on: NCI-H292 lung cancer cells; assay: FDA drug screening, complete media vs cholesterol-free media with simvastatin (TABLE 2); assay type: cell-based, human; details: for Cholesterol-free media + simvastatin (0.04 μM) / Complete Media: NCI-H292 cells; for Cholesterol-free media + simvastatin (0.04 μM): cholesterol-free media with simvastatin 0.04 μM
[4] = tested on: NCI-H292 lung cancer cells; assay: FDA drug screening, complete media vs cholesterol-free media without statin (TABLE 1); assay type: cell-based, human
cancer cell lines = assay: Drug validation in multiple cancer cell lines, four media conditions; assay type: cell-based, human
Description: as §1
[…]. Medium 1 was ‘complete medium’ containing all essential nutrients, including cholesterol. Medium 2 was cholesterol-free medium. Medium 3 was cholesterol-free medium supplemented with simvastatin 40 nM. […]
as §3, with “and dried. […] Plates were” for “and dried. 100 μL of 10% acetic acid was added to each well to release the crystal violet taken up by the cells. Plates were”, “590 nm. […]” for “590 nm.”

PSN1 cells = assay: Drug validation, four media conditions; assay type: cell-based, human; details: for anti-proliferative effect (dose-response curve shift): cholesterol-free medium+simvastatin compared to the other media conditions
Description: as §1, §2, §3, §4

PATU8901 cells = assay: Drug validation, four media conditions; assay type: cell-based, human; details: cholesterol-free media with simvastatin
Description: as §1, §2, §3, §4

H292 cells [5] = assay: Drug validation in H292 cells, three media conditions; assay type: cell-based, human; details: cholesterol-free medium + simvastatin 40 nM vs complete and cholesterol-free medium
Description: as §1
On Day 1, cells were seeded at a density of around 7500 cells/well in a Corning 96-well flat bottom culture plate in complete media containing 10% FBS.
On Day 5, spent media was discarded, and wells were stained with a crystal violet staining solution, washed and dried. 100 μL of 10% acetic acid was added to each well to release the crystal violet taken up by the cells. Plates were read using a Biotek Powerwave plate reader to determine the absorbance of the crystal violet released as an indicator of cell growth at a wavelength of 595 nm.
Growth curves showing absorbance of crystal violet at 595 nm were plotted from test wells against the logarithmic concentration of the validation drug. FIG. 7A-7C show growth of cancer cell lines in the three media conditions subjected to increasing doses of isavuconazole (FIG. 7A), pitolisant (FIG. 7B), or toremifene (FIG. 7C) from the FDA screen under validation. For each of the drugs being validated, there is a strong ‘left-shift’ in the dose response curve for cells are grown in the cholesterol-free medium+simvastatin.

PC9 cells = assay: Drug validation, four media conditions; assay type: cell-based, human; details: cholesterol-free medium+simvastatin compared to the other media conditions
Description: as §1, §2, §3, §4

HCC827 cells = assay: Drug validation, four media conditions; assay type: cell-based, human; details: cholesterol-free and cholesterol-free+simvastatin media conditions
Description: as §1, §2, §3, §4

PC9 lung cancer tumors = assay: Anti-tumour activity with low cholesterol diet in PC9 bearing mice; assay type: in vivo, C.B-17 SCID mice; details: Low Chol Diet + toremifene 2 mg/kg with simvastatin 10 mg/kg, daily oral gavage, compared to simvastatin 20 mg/kg
Description: as §5
Immunodeficient C.B-17 SCID (C.B-Igh-1^b/IcrTac-Prkdc^scid) mice were subcutaneously injected with human lung cancer PC9 cells to initiate tumor development and randomly assigned into one of three experimental groups (n=6 per group): “Low Chol Diet” containing less than 0.05% dietary cholesterol and vehicle, Low Chol Diet and simvastatin 20 mg/kg, and Low Chol Diet and simvastatin 10 mg/kg in combination with toremifene 2 mg/kg. Once the tumor volume reached ˜200 mm^3, treatment was commenced with vehicle, simvastatin, and toremifene administered daily by oral gavage. Treatment continued for 28 days or until the tumor volume exceeded 2000 mm^3. Throughout the course of the study, tumor volume was measured twice per week.

[6] = NCI-H292 cells, cholesterol-free media without statin, FDA drug library screen
[7] = NCI-H292 cells, complete media, FDA drug library screen
[8] = FDA drug library screen, complete media
[9] = complete media minus cholesterol-free media + simvastatin, >0 enhanced anti-cancer activity, about 0 neutral, <0 antagonist
[10] = cholesterol-free and cholesterol-free+simvastatin media conditions

## CCN(CCCc1ccccc1)CCCc1ccccc1 [alverine citrate]
H292 cells [1]
  anti-proliferative effect (dose-response curve shift): enhanced
SW480 cells; cholesterol-free medium+simvastatin compared to the other media conditions
  anti-proliferative effect (dose-response curve shift): enhanced

## CC(C)c1c(C(=O)Nc2ccccc2)c(-c2ccccc2)c(-c2ccc(F)cc2)n1CC[C@@H](O)C[C@@H](O)CC(=O)O [atorvastatin, reference compound]
SW480 colorectal tumour; Low Chol Diet + atorvastatin 15 mg/kg daily oral gavage vs Low Chol Diet + vehicle
  tumor growth suppression: enhanced
[2]
  tumor growth suppression: enhanced the tumor growth suppression
[3]; FDA drug library screen, listed as Atorvastatin
  Cholesterol-free media + simvastatin (0.04 μM): 0.6169
[3]; FDA drug library screen, complete media, listed as Atorvastatin
  Complete Media: 0.8658
[3]; complete media minus cholesterol-free media + simvastatin, >0 enhanced anti-cancer activity, about 0 neutral, <0 antagonist, listed as Atorvastatin
  Difference: 0.25
[4]; Complete minus Cholesterol-free, >0 enhanced anti-cancer activity, about 0 neutral, <0 antagonist
  Difference: 0.03
[4]; [6]
  Cholesterol-free: 0.8356
[4]; [7]
  Complete: 0.8623

## Cn1cc(-c2cc3c(N4CCN(c5ncc([C@@](C)(N)c6ccc(F)cc6)cn5)CC4)ncnn3c2)cn1 [avapritinib, reference compound]
Cancer cell lines; cholesterol-free media compared to complete media
  anti-proliferative effect (dose-response curve shift) with lack of cholesterol: enhanced
PSN1 cells
  anti-proliferative effect (dose-response curve shift): strong left-shift
H292 cells [1]
  anti-proliferative effect (dose-response curve shift): strong left-shift
PATU8901 cells
  anti-proliferative effect (dose-response curve shift): strong left-shift
[3]; FDA drug library screen
  Cholesterol-free media + simvastatin (0.04 μM): 0.4436
[3]; [8]
  Complete Media: 0.749
[3]; [9]
  Difference: 0.31
[4]; NCI-H292 cells, cholesterol-free media without statin
  Cholesterol-free: 0.9337
[4]; NCI-H292 cells, complete media
  Complete: 0.6002
[4]; complete vs cholesterol-free media, greater than 0 enhanced anti-cancer activity, about 0 neutral, below 0 antagonists
  Difference: −0.33

## C[C@@H](c1nc(-c2ccc(C#N)cc2)cs1)[C@](O)(Cn1cncn1)c1cc(F)ccc1F [isavuconazole, reference compound]
H292 cells [5]
  anti-proliferative effect of the drug (dose response curve shift): strongly enhanced
PSN1 cells; cholesterol-free medium+simvastatin relative to the other three media conditions
  basal viability of treated cells: decreased basal viability
H292 cells [1]
  anti-proliferative effect (dose-response curve shift): strong left-shift
PC9 cells
  anti-proliferative effect (dose-response curve shift): strong left-shift
[3]; FDA drug library screen
  Cholesterol-free media + simvastatin (0.04 μM): 0.5246
[3]; [8]
  Complete Media: 0.9256
[3]; [9]
  Difference: 0.40
[4]; Complete minus Cholesterol-free, greater than 0 enhanced anti-cancer activity, about 0 neutral, below 0 antagonists
  Difference: −0.83
[4]; NCI-H292 cells in cholesterol-free media without statin
  Cholesterol-free: 1.746
[4]; NCI-H292 cells in complete media
  Complete: 0.9126

## CCCCCOc1ccccc1/C(=C\SC)n1ccnc1 [neticonazole, reference compound]
PSN1 cells
  anti-proliferative effect (dose-response curve shift): strongly enhanced
H292 cells [1]
  anti-proliferative effect (dose-response curve shift): strongly enhanced
PC9 cells
  anti-proliferative effect (dose-response curve shift): strongly enhanced
[3]; FDA drug library screen, complete media, listed as Neticonazole
  Complete Media: 1.262
[3]; complete media minus cholesterol-free media + simvastatin, >0 enhanced anti-cancer activity, about 0 neutral, <0 antagonist, listed as Neticonazole
  Difference: 0.90
[4]; Complete minus Cholesterol-free, greater than 0 enhanced anti-cancer activity, about 0 neutral, below 0 antagonist
  Difference: −0.16
[4]; NCI-H292 cells, FDA drug library screen, cholesterol-free media without statin
  Cholesterol-free: 0.9493
[4]; NCI-H292 cells, FDA drug library screen, complete media
  Complete: 0.7904

## Clc1ccc(CCCOCCCN2CCCCC2)cc1 [pitolisant]
H292 cells [5]
  anti-proliferative effect of the drug (dose response curve shift): strongly enhanced
PSN1 cells; [10]
  activity (dose-response curve shift) with lack of cholesterol: enhanced
HCC827 cells
  activity (dose-response curve shift) with lack of cholesterol: enhanced
SW480 cells; [10]
  activity (dose-response curve shift) with lack of cholesterol: enhanced

## CN(C)CCOc1ccc(/C(=C(/CCCl)c2ccccc2)c2ccccc2)cc1 [toremifene]
PC9 lung cancer tumors
  tumor growth suppression: enhanced the tumor growth suppression
SW480 colorectal tumour; Low Chol Diet + toremifene 2 mg/kg
  tumor growth suppression, rank among the four conditions: highest
SW480 colorectal tumour; Low Chol Diet + toremifene 2 mg/kg daily oral gavage vs Low Chol Diet + vehicle
  tumor growth suppression: enhanced
H292 cells [5]
  anti-proliferative effect of the drug (dose response curve shift): strongly enhanced
Cancer cell lines; cholesterol-free+simvastatin medium compared to the other three media conditions
  anti-proliferative activity (dose-response curve shift): strong left-shift

## Vonoprazan (Fumarate)
[3]; FDA library drug in complete media
  Complete Media: 0.7838
[3]; complete media vs cholesterol-free media + simvastatin (0.04 μM), […]
  Difference: −0.27
[4]; [6]
  Cholesterol-free: 1.164
[4]; [7]
  Complete: 1.405
[4]; complete vs cholesterol-free media, […]
  Difference: 0.24
